Data reported in paper PMC6804229, “Cytotoxic Xanthones from Hypericum stellatum, an Ethnomedicine in Southwest China” (Molecules, 2019).
Like-named read-outs stand apart in the source and are kept apart here.

Legend:
[1] = tested on: five human liver carcinoma cell lines; assay: cells; type: cell-based
Method: The incubation continued for another 1–4 h.

LO2 [2] = tested on: LO2
Text: (§1) Considering its purported medicinal value for the treatment of liver disease, we tested the cytotoxic activities of ten xanthones isolated from H. stellatum against five human liver carcinoma cell lines (SMMC-7721, Huh-7, HepG2, SK-HEP-1, PLC/PRF/5), as well as the immortalized non-cancerous human liver cell (LO2) by the MTS method, in vitro, with cisplatin (CAS No. 15663-27-1, Meilunbio, Dalian, China) and Taxol (CAS No. 33069-62-4, Meilunbio, Dalian, China) as positive controls.
(§2) The isolated compounds were tested in vitro for their cytotoxicity to five human liver carcinoma cell lines (SMMC-7721, Huh-7, HepG2, SK-HEP-1, PLC/PRF/5) and the immortalized noncancerous human liver cell (LO2), in a 3-(4,5-dimethylthiazol-2-yl)-5(3-carboxymethoxyphenyl)2-(4-sulfopheny)-2H-tetrazolium (MTS; Promega, Beijing, China) assay [31]. In general, cells in the log phase of their cycle were seeded in 96-well plates (4000–5000 cells/well, NEST Biotechnology, Wuxi, China) in a 100-μL volume. After 12 h of incubation at 37 °C, each test compound was added. The cancer cell lines were exposed to the test compounds at five concentrations (0.064, 0.32, 1.6, 8, and 40 μM) in triplicate with cisplatin (Meilunbio, CAS No. 15663-27-1) and Taxol (Meilunbio, CAS No. 33069-62-4) as the positive control. After incubation for 48 h at 37 °C, 20 μL of MTS solution and 100 μL DMEM were added into the well. The incubation continued for another 1–4 h.

Huh-7 [3] = assay: MTS cytotoxicity assay, Huh-7
Method: as §2

HepG2 [4] = assay: MTS cytotoxicity assay, HepG2
Method: as §2

SK-HEP-1 [5] = assay: MTS cytotoxicity assay, SK-HEP-1
Method: as §2

SMMC-7721 [6] = assay: MTS cytotoxicity assay, SMMC-7721
Method: as §2

PLC/PRF/5 [7] = assay: MTS cytotoxicity assay, PLC/PRF/5
Method: as §2

LO2 [8] = assay: cells; conditions: Homo sapiens, L02, 48 h, read-out: IC50 ± SD
Text: as §1, §2

SMMC-7721 [9] = tested on: SMMC-7721
Method: as §2

Huh-7 [10] = tested on: Huh-7
Method: as §2

HepG2 [11] = tested on: HepG2
Method: as §2

SK-HEP-1 [12] = tested on: SK-HEP-1
Method: as §2

PLC/PRF/5 [13] = tested on: PLC/PRF/5
Method: as §2

PKC = tested on: PKC; parameters: method as in PMID 26245668; conditions: synthesized isojacareubin; cited from earlier work
[14] = range over five human liver carcinoma cell lines, read-out: IC50 value range
[15] = read-out: IC50 ± SD, LO2 human normal liver cell line, MTS, 48 h, mean of three independent experiments
[16] = read-out: IC50 ± SD, Huh-7, MTS, 48 h, mean of three independent experiments
[17] = read-out: IC50 ± SD, HepG2, MTS, 48 h, mean of three independent experiments
[18] = read-out: IC50 ± SD, SK-HEP-1, MTS, 48 h, mean of three independent experiments
[19] = read-out: IC50 ± SD, SMMC-7721, MTS, 48 h, mean of three independent experiments
[20] = read-out: IC50 ± SD, PLC/PRF/5, MTS, 48 h, mean of three independent experiments
[21] = Homo sapiens, Huh-7, 48 h, read-out: IC50 ± SD
[22] = Homo sapiens, HepG2, 48 h, read-out: IC50 ± SD
[23] = Homo sapiens, HepG2, read-out: cytotoxic activity (class)
[24] = Homo sapiens, SK-HEP1, 48 h, read-out: IC50 ± SD
[25] = Homo sapiens, SMMC-7721, 48 h, read-out: IC50 ± SD
[26] = Homo sapiens, PLC-PRF-5, 48 h, read-out: IC50 ± SD
[27] = Homo sapiens, SMMC-7721, read-out: cytotoxic activity (class)
[28] = Homo sapiens, SK-HEP1, read-out: cytotoxic activity (class)
[29] = Homo sapiens, Huh-7, read-out: cytotoxic activity (class)
[30] = Homo sapiens, PLC-PRF-5, read-out: cytotoxic activity (class)

| Compound | IC50 (LO2 [8]) | IC50 (Huh-7 [3]; [21]) | IC50 (HepG2 [4]; [22]) | IC50 (HepG2 [4]; [23]) | IC50 (SK-HEP-1 [5]; [24]) | IC50 (SMMC-7721 [6]; [25]) | IC50 (PLC/PRF/5 [7]; [26]) | also measured |
| --- | --- | --- | --- | --- | --- | --- | --- | --- |
| N.N.[Cl][Pt][Cl] [Cisplatin, cisplatin, reference compound] | – | – | – | – | – | – | – | IC50 [1, 14]: 4.47 to 20.6 µM; IC50 (LO2 [2]; [15]): 13.9 ± 0.87 µM; IC50 (Huh-7 [3]; [16]): 16 ± 0.95 µM; IC50 (HepG2 [4]; [17]): 10.3 ± 0.5 µM; IC50 (SK-HEP-1 [5]; [18]): 20.6 ± 1.03 µM; IC50 (SMMC-7721 [6]; [19]): 4.47 ± 0.27 µM; IC50 (PLC/PRF/5 [7]; [20]): 10.7 ± 0.8 µM |
| COc1cc2oc3ccccc3c(=O)c2cc1O [Compound 1, 2-hydroxy-3-methoxyxanthone] | 14.5 ± 0.95 µM | > 40 µM | 10.2 ± 0.12 µM | 10 to 40 µM | > 40 µM | > 40 µM | > 40 µM | – |
| O=c1c2c(O)cccc2oc2cc(O)cc(O)c12 [Compound 2, 1,3,8-trihydroxyxanthone] | > 40 µM | > 40 µM | > 40 µM | – | > 40 µM | 15.2 ± 0.27 µM | > 40 µM | IC50 (SMMC-7721 [6]; [27]): 10 to 40 µM |
| O=c1c2cc(O)c(O)cc2oc2cc(O)cc(O)c12 [Compound 3, 1,3,6,7-tetrahydroxylxanthone] | – | > 40 µM | > 40 µM | – | > 40 µM | > 40 µM | > 40 µM | – |
| O=c1c2cc(O)ccc2oc2cc(O)cc(O)c12 [Compound 4, 1,3,7-trihydroxyxanthone] | > 40 µM | > 40 µM | 22.6 ± 1.43 µM | 10 to 40 µM | > 40 µM | > 40 µM | > 40 µM | – |
| COc1cc(O)cc2oc3cc(O)c(O)cc3c(=O)c12 [Compound 5, 3,6,7-trihydroxy-1-methoxyxanthone] | – | > 40 µM | > 40 µM | – | > 40 µM | > 40 µM | > 40 µM | – |
| COc1cc2oc3cc(O)cc(O)c3c(=O)c2cc1O [Compound 7, 1,3,7-trihydroxy-6-methoxyxanthone] | 12.1 ± 0.14 µM | > 40 µM | > 40 µM | – | 37.1 ± 0.97 µM | 28.2 ± 0.89 µM | > 40 µM | IC50 (SK-HEP-1 [5]; [28]): 10 to 40 µM; IC50 (SMMC-7721 [6]; [27]): 10 to 40 µM |
| C=C(C)[C@@H]1Cc2c(cc(O)c3c(=O)c4ccc(O)c(O)c4oc23)OC1C=C(C)C (some centres unmarked) [Compound 9, Hypxanthone B] | > 40 µM | 25.8 ± 2.04 µM | 11.93 ± 0.1 µM | 10 to 40 µM | > 40 µM | 8.26 ± 0.57 µM | 30.8 ± 0.38 µM | IC50 ([1]; Homo sapiens, read-out: cytotoxicity (class)): 10 to 40 µM; IC50 (Huh-7 [3]; [29]): 10 to 40 µM; IC50 (PLC/PRF/5 [7]; [30]): 10 to 40 µM |
| C=C(C)C(CC=C(C)C)Cc1c(O)cc(O)c2c(=O)c3ccc(O)c(O)c3oc12 (centres unmarked) [Compound 10, calycinoxanthon D] | 12.2 ± 0.25 µM | 16.6 ± 0.24 µM | 21.33 ± 0.16 µM | 10 to 40 µM | 31.1 ± 2.67 µM | 6.27 ± 0.16 µM | 24.9 ± 0.46 µM | IC50 (Huh-7 [3]; [29]): 10 to 40 µM; IC50 (SK-HEP-1 [5]; [28]): 10 to 40 µM; IC50 (PLC/PRF/5 [7]; [30]): 10 to 40 µM |
| CC(=O)O[C@H]1C(=O)[C@@]2(C)[C@H]([C@H](OC(=O)c3ccccc3)[C@]3(O)C[C@H](OC(=O)[C@H](O)[C@@H](NC(=O)c4ccccc4)c4ccccc4)C(C)=C1C3(C)C)[C@]1(OC(C)=O)CO[C@@H]1C[C@@H]2O [Taxol, reference compound] | < 0.01 µM | 0.11 ± 0.011 µM | < 0.01 µM | – | < 0.01 µM | 0.18 ± 0.03 µM | < 0.01 µM | – |
| isojacareubin [Compound 6] | – | – | – | – | – | – | – | IC50 [1, 14]: 1.41 to 11.8 µM; IC50 (SMMC-7721 [9]): < 10 µM; IC50 (Huh-7 [10]): < 10 µM; IC50 (HepG2 [11]): < 10 µM; IC50 (SK-HEP-1 [12]): < 10 µM; IC50 (PLC/PRF/5 [13]): 10 to 40 µM; IC50 (LO2 [2]): < 10 µM; IC50 (LO2 [2]; [15]): 2.03 ± 0.04 µM; inhibition of PKC (PKC): potent inhibitor; IC50 (Huh-7 [3]; [16]): 9.09 ± 0.38 µM; IC50 (HepG2 [4]; [17]): 2.4 ± 0.02 µM; IC50 (SK-HEP-1 [5]; [18]): 9.2 ± 0.21 µM; IC50 (SMMC-7721 [6]; [19]): 1.41 ± 0.03 µM; IC50 (PLC/PRF/5 [7]; [20]): 11.8 ± 0.56 µM |
